Measured values reported in patent publication US20110236822A1, “METHOD OF TREATING SEASONED DEVELOPER SOLUTION” (priority 2010, published 2011).
Like-named read-outs stand apart in the source and are kept apart here.

Experiments:
[1] = tested on: aquatic life; conditions: from MSDS sheets; cited from earlier work
[2] = Treatment of IR dye with oxidative and reducing reagents to degrade the dye (TABLE I); format: physicochemical
[3] = Attempt to precipitate the cationic chromophore of IR dye 66e as insoluble salts with organic acids; format: physicochemical; conditions: IR dye 66e 0.3% in methanol; aqueous organic acid at 3% concentration
[4] = Attempt to precipitate the anionic chromophore of IR Dye I as insoluble salts; format: physicochemical; conditions: IR Dye I 0.3% in methanol; 3% solution of compound in water
[5] = Treatment of seasoned developer solution with Chlorox bleach solution, residual dye by LC-MS; format: physicochemical; conditions: Kodak 1080 Developer seasoned, diluted, 8 ml bleach diluted to 6%, 6000 rpm
Description: In this example, seasoned developer solutions containing IR dye 66e were treated with commercial Chlorox® bleach solution and the degradation products were examined by LC-MS. The seasoned developer solutions were prepared in the lab after development of imaged commercially available, negative-working printing plate precursors containing IR dye 66e with Kodak 1080 Developer under conditions that account for real-life situation at the end of the processor cycle when the seasoned developer solution is being changed. The following calculation of the coating concentration in the seasoned developer solution at the end of the processing cycle takes into account that a Mercury 1035 processor will have a cycle of 3150 m^2 plates/9 gal (34 liters) of developer solution that is the tank capacity. […]
To account for the lower limit, solution C was prepared by dissolving 1.1 m^2 of printing plate coating in 100 ml of developer solution. […] The precipitate (2) and the supernatant liquid (2) were analyzed by LC-MS for the IR dye 66e using the equipment and method described above in Comparative Example 3.
Precipitate (2) was extracted in acetonitrile:isopropanol at 2.5 mg/ml. […] This reference solution (standard) was analyzed to determine the sensitivity of the instrument. […]

[6] = Treatment of IR dye 66e in methanol with Chlorox bleach solution (qualitative, titration, LC-MS); format: physicochemical
[7] = Treatment of seasoned developer solution with Chlorox bleach solution, residual dye by FTIR; format: physicochemical; conditions: Kodak 955 Developer seasoned, 15 ml bleach diluted to 6%, 2000 rpm
Description: An imageable layer coating formulation was prepared with the components in TABLE II below in a solvent mixture of methyl ethyl ketone:water:isopropyl alcohol (70:20:10 weight ratio). The formulation was coated onto a sulfuric acid anodized aluminum substrate and dried in a conveyor oven at 100° C. for 1 minute to provide an imageable layer with a dry coating weight of 1.60 g/m^2. The resulting printing plate precursors were imaged at 110 mJ/cm^2 and 11 Watt using a Kodak 3244x platesetter. The imaged precursors (approx. 11 m^2) were manually developed in 1 liter of Kodak 955 Developer to produce seasoned developer solution (3).
Samples (each 50 ml) of seasoned developer solution (3) were diluted with 150 ml of water and treated with 15 ml of Chlorox® bleach solution diluted to 6% by drop wise addition while stirring at 2000 rpm. The stirring continued for another 15 minutes after the addition. The green color of the seasoned developer solution samples disappeared, forming pale yellow, slightly turbid solutions. […] The extract was concentrated about 50 times and analyzed by FTIR. […]
An imageable layer coating formulation was prepared using the components of TABLE II above except that the IR dye was S0507 from Few Chemicals GmbH. […] The extract was concentrated 50 times by evaporation under nitrogen flow and spotted onto a sodium chloride disk, dried, and analyzed by FTIR. […]

[8] = tested on: humans; conditions: from MSDS sheets; cited from earlier work
[9] = 0.3% IR dye 66e in methanol, 23° C.
[10] = after titration with diluted bleach

[Cl][Fe][Cl] [Ferrous chloride]
toxicity to aquatic life [1]: toxic to aquatic life
Change Noticed [2, 9]: Black

naphthalene sulfonic acid
precipitation of IR dye 66e [3]: None of these organic acids were useful to precipitate the IR dye 66e

C[N+](C)(C)Cc1ccccc1.[Cl-] [benzyl trimethyl ammonium chloride]
precipitation of IR Dye I [4]: None of these compounds precipitated IR Dye I

[Cl][Fe]([Cl])[Cl] [Ferric chloride]
toxicity to aquatic life [1]: toxic to aquatic life
Change Noticed [2, 9]: Black

O=S([O-])S(=O)(=O)[O-].[Na+].[Na+] [Sodium metabisulfite]
Change Noticed ([2]; 0.3% IR dye 66e in methanol, Heat): No reaction

CN1/C(=C/C=C2\CCCC(/C=C/C3=[N+](C)c4ccccc4C3(C)C)=C2Sc2ccccc2)C(C)(C)c2ccccc21 [IR dye 66e]
residual dye in supernatant liquid (2) by LC-MS [5]: No trace of IR dye 66e was found
change of dye solution on bleach treatment ([6]; 0.3% in methanol, liberal amount of Chlorox bleach solution (3.6% sodium hypochlorite), room temperature, shaking): color change from green to light yellow and a yellow precipitate was formed
change of dye solution, incomplete degradation ([6]; 20 ml solution B titrated with 4.8 ml of 5% bleach (insufficient hypochlorite)): became reddish-brown
residual dye in filtrate (1) by LC-MS [6, 10]: did not contain IR dye 66e
residual dye in precipitate (1) by LC-MS [6, 10]: gave a signal for the IR dye 66e
original dye co-precipitated with its degradation products ([6]; estimated, precipitate (1)): about 1%
undiluted Chlorox bleach solution needed to bleach 1 mg of dye ([6]; titration, per 1 mg dye, magnetic stirrer): 0.007463 mL
Chlorox bleach solution needed for degradation of 1 g of dye ([6]; titration, per 1 g dye): 7.46 mL

CCCCCCCCCCCCCCCCCC[N+](C)(C)Cc1ccccc1.[Cl-] [benzyl stearyl dimethyl ammonium chloride]
precipitation of IR Dye I [4]: None of these compounds precipitated IR Dye I

[O-][Cl+3]([O-])([O-])O [Perchloric acid]
Change Noticed [2]: Dye bleached pink

O=[N+]([O-])[O-].O=[N+]([O-])[O-].O=[N+]([O-])[O-].O=[N+]([O-])[O-].O=[N+]([O-])[O-].O=[N+]([O-])[O-].[Ce+4].[NH4+].[NH4+] [Ceric ammonium nitrate]
Change Noticed [2]: Dye bleached pink

CC(=O)OCCN1/C(=C/C=C2\CCC(/C=C/C3=[N+](CCOC(C)=O)c4ccc5cc(S(=O)(=O)O)ccc5c4C3(C)C)=C2N(c2ccccc2)c2ccccc2)C(C)(C)c2c1ccc1cc(S(=O)(=O)[O-])ccc21 [IR Dye I]
residual dye in extract of sediment (3) or supernatant liquid (3) by FTIR [7]: No residual IR Dye I was found

N.N.O=S(=O)(O)OOS(=O)(=O)O [Ammonium persulfate]
toxicity to aquatic life [1]: toxic to aquatic life
Change Noticed [2, 9]: Dye bleached pink

O=C1CCC(=O)N1Br [N-Bromo-succinimide]
Change Noticed [2]: Dye bleached pink

O=C([O-])c1ccccc1.[Cu+] [Cu(I) benzoate]
Change Noticed [2]: Dye bleached pink

OO [Hydrogen peroxide]
carcinogenic and mutagenic potential for humans [8]: potential carcinogenic and mutagenic for humans
Change Noticed ([2]; 0.3% IR dye 66e in methanol, NaOH, room temperature): Pink precipitate
Change Noticed ([2]; 0.3% IR dye 66e in methanol, Sulfuric acid, 1%, 23° C.): Black
Change Noticed ([2]; 0.3% IR dye 66e in methanol, Sulfuric acid, 1%, Heat): Dye bleached pink

O=S([O-])O.[Na+] [Sodium hydrogen sulfite]
Change Noticed [2]: No reaction

O=S(=O)([O-])OOS(=O)(=O)[O-].[K+].[K+] [Potassium persulfate]
Change Noticed [2]: Brown

O=S([O-])[O-].[Na+].[Na+] [Na sulfite]
Change Noticed [2]: Some bleaching,
